Drawing on patent US8796256B2 (Janssen Pharmaceutica NV, priority 2010, dated 2014), this text covers EC50 for 24 molecules.

For orientation: EC50 means the midpoint of the concentration-response curve. A lower EC50 goes with an effect from little substance.

This assay has as its target T1, ERR1 (also known as ERR-α or ERR-1) (Homo sapiens, UniProt P11474).
T1 sequence (P11474 193-421 limits assumed): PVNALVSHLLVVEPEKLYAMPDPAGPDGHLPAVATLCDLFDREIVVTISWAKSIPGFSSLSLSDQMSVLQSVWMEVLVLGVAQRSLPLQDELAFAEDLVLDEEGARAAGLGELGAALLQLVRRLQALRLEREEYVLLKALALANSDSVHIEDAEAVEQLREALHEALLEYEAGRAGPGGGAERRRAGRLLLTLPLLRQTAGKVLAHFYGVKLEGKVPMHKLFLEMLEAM
In words: TR-FRET assay (disruption of co-activator peptide binding to ERR1 LBD). The format is biochemical. The following applies: 6 nM 6His-ERR1LBD, 6 nM GST-SRC-2 peptide; average of 3 independent experiments. The method, boiled down:
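His-tagged ERR1 ligand-binding domain and GST-labelled SRC-2 peptide, each 6 nM, equilibrated at 25° C for 4-18 h in Tris pH 8/Hepes/KCl/DTT/delipidated BSA buffer. Compound-induced loss of co-activator binding read as Eu cryptate→XL665 energy transfer; values from hyperbolic curve fits averaged over 3 independent runs.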
Background: Time-resolved FRET reads energy transfer from a long-lived donor to a nearby acceptor.
For `CC(C)N1CC[C@@H](N2C(=O)S/C(=C\c3ccc4c(cnn4Cc4ccc(C(F)(F)F)cc4C(F)(F)F)c3)C2=O)[C@H](F)C1` (relative stereo) [Compound 331, (5Z)-5-({1-[2,4-Bis(trifluoromethyl)benzyl]-1H-indazol-5-yl}methylidene)-3-[trans-3-fluoro-1-(1-methylethyl)piperidin-4-yl]-1,3-thiazolidine-2,4-dione], the EC50 turned out to be 238 nM. In turn, `COC(=O)C1(N2C(=O)S/C(=C\c3ccc4c(cnn4Cc4ccc(Cl)cc4C(F)(F)F)c3)C2=O)CCOCC1` [Compound 226, Methyl 4-[(5Z)-5-({1-[4-chloro-2-(trifluoromethyl)benzyl]-1H-indazol-5-yl}methylidene)-2,4-dioxo-1,3-thiazolidin-3-yl]tetrahydro-2H-pyran-4-carboxylate] showed an EC50 of 30 nM. Compared with the last molecule, the EC50 is about 7.9-fold lower.

`NC1(CN2C(=O)S/C(=C\c3ccc4c(cnn4Cc4ccc(Cl)cc4C(F)(F)F)c3)C2=O)CC1` [Compound 194, (5Z)-3-[(1-Aminocyclopropyl)methyl]-5-({1-[4-chloro-2-(trifluoromethyl)benzyl]-1H-indazol-5-yl}methylidene)-1,3-thiazolidine-2,4-dione] gave an EC50 of 34 nM. This EC50 and that of the molecule before are within 1.5-fold of each other. With `O=C(O)CN1C(=O)S/C(=C\c2ccc3c(c2)c(F)nn3Cc2ccc(Cl)cc2C(F)(F)F)C1=O` [Compound 406, [(5Z)-5-({1-[4-Chloro-2-(trifluoromethyl)benzyl]-3-fluoro-1H-indazol-5-yl}methylidene)-2,4-dioxo-1,3-thiazolidin-3-yl]acetic acid], the EC50 was 13 nM. In turn, `NS(=O)(=O)CN1C(=O)S/C(=C\c2ccc3c(cnn3Cc3ccc(F)cc3C(F)(F)F)c2)C1=O` [Compound 61, 1-[(5Z)-5-({1-[4-Fluoro-2-(trifluoromethyl)benzyl]-1H-indazol-5-yl}methylidene)-2,4-dioxo-1,3-thiazolidin-3-yl]methanesulfonamide] had an EC50 of 269 nM. Molecule `O=C(CN1C(=O)S/C(=C\c2ccc3c(c2)c(Cl)nn3Cc2ccc(Cl)cc2C(F)(F)F)C1=O)NS(=O)(=O)N1CCCC1` [Compound 375, 2-[(5Z)-5-({3-Chloro-1-[4-chloro-2-(trifluoromethyl)benzyl]-1H-indazol-5-yl}methylidene)-2,4-dioxo-1,3-thiazolidin-3-yl]-N-(pyrrolidin-1-ylsulfonyl)acetamide] came in with an EC50 of 70 nM. This EC50 lies about 3.8-fold lower than the previous one. As for `CN1CCN(N2C(=O)S/C(=C\c3ccc4c(cnn4Cc4ccc(C(F)(F)F)cc4C(F)(F)F)c3)C2=O)CC1` [Compound 350, (5Z)-5-({1-[2,4-Bis(trifluoromethyl)benzyl]-1H-indazol-5-yl}methylidene)-3-(4-methylpiperazin-1-yl)-1,3-thiazolidine-2,4-dione], the EC50 was 38 nM. The figure for `O=C1S/C(=C\c2ccc3c(cnn3Cc3ccc(Cl)cc3C(F)(F)F)c2)C(=O)N1Cc1nccn1S(=O)(=O)N1CCCC1` [Compound 412, (5Z)-5-({1-[4-Chloro-2-(trifluoromethyl)benzyl]-1H-indazol-5-yl}methylidene)-3-{[1-(pyrrolidin-1-ylsulfonyl)-1H-imidazol-2-yl]methyl}-1,3-thiazolidine-2,4-dione] is 38 nM. Under `O=C1S/C(=C\c2ccc3c(cnn3Cc3ccc(Cl)cc3C(F)(F)F)c2)C(=O)N1CCNS(=O)(=O)N1CCOCC1` [Compound 398, N-{2-[(5Z)-5-({1-[4-Chloro-2-(trifluoromethyl)benzyl]-1H-indazol-5-yl}methylidene)-2,4-dioxo-1,3-thiazolidin-3-yl]ethyl}morpholine-4-sulfonamide] stands 10 nM; under `CS(=O)(=O)NCCN1C(=O)S/C(=C\c2ccc3c(cnn3Cc3ccc(Cl)cc3C(F)(F)F)c2)C1=O` [Compound 393, N-{2-[(5Z)-5-({1-[4-Chloro-2-(trifluoromethyl)benzyl]-1H-indazol-5-yl}methylidene)-2,4-dioxo-1,3-thiazolidin-3-yl]ethyl}methanesulfonamide], 32 nM. Take `CS(=O)(=O)NN1C(=O)S/C(=C\c2cc3cnn(Cc4ccc(Cl)cc4C(F)(F)F)c3cc2F)C1=O` [Compound 371, N-[(5Z)-5-({1-[4-Chloro-2-(trifluoromethyl)benzyl]-6-fluoro-1H-indazol-5-yl}methylidene)-2,4-dioxo-1,3-thiazolidin-3-yl]methanesulfonamide]: the midpoint of the response, the EC50, lay at 9 nM. `CC1(C)OCC(CN2C(=O)S/C(=C\c3ccc4c(cnn4Cc4ccc(Cl)cc4C(F)(F)F)c3)C2=O)O1` (stereo not drawn) [Compound 42, (5Z)-5-({1-[4-Chloro-2-(trifluoromethyl)benzyl]-1H-indazol-5-yl}methylidene)-3-[(2,2-dimethyl-1,3-dioxolan-4-yl)methyl]-1,3-thiazolidine-2,4-dione] gave an EC50 of 46 nM. The figure for `O=C1S/C(=C\c2ccc3c(cnn3Cc3ccc(Cl)cc3C(F)(F)F)c2)C(=O)N1[C@@H]1CNC[C@H]1F` (relative stereo) [Compound 317, (5Z)-5-({1-[4-Chloro-2-(trifluoromethyl)benzyl]-1H-indazol-5-yl}methylidene)-3-[trans-4-fluoropyrrolidin-3-yl]-1,3-thiazolidine-2,4-dione] is 12 nM; for `O=C1S/C(=C\c2ccc3c(cnn3Cc3ccc(Cl)cc3C(F)(F)F)c2)C(=O)N1C1CN2CCC1CC2` (stereo not drawn) [Compound 112, (5Z)-3-(1-Azabicyclo[2.2.2]oct-3-yl)-5-({1-[4-chloro-2-(trifluoromethyl)benzyl]-1H-indazol-5-yl}methylidene)-1,3-thiazolidine-2,4-dione] it is 22 nM; for `O=C1S/C(=C\c2ccc3c(c2)nnn3Cc2ccc(Cl)cc2C(F)(F)F)C(=O)N1Cc1nnn[nH]1` [Compound 265, (5Z)-5-({1-[4-Chloro-2-(trifluoromethyl)benzyl]-1H-benzotriazol-5-yl}methylidene)-3-(1H-tetrazol-5-ylmethyl)-1,3-thiazolidine-2,4-dione] it is 40 nM. On to `O=C1S/C(=C\c2ccc3c(cnn3Cc3ccc(Cl)cc3C(F)(F)F)c2)C(=O)N1CCNS(=O)(=O)c1ccc(C(F)(F)F)cc1` [Compound 392, N-{2-[(5Z)-5-({1-[4-Chloro-2-(trifluoromethyl)benzyl]-1H-indazol-5-yl}methylidene)-2,4-dioxo-1,3-thiazolidin-3-yl]ethyl}-4-(trifluoromethyl) benzenesulfonamide], for which the EC50 worked out at 215 nM. This EC50 is about 5.4-fold higher than that of the molecule before. Molecule `O=C(O)COCCN1C(=O)S/C(=C\c2ccc3c(cnn3Cc3ccc(Cl)cc3C(F)(F)F)c2)C1=O` [Compound 237, {2-[(5Z)-5-({1-[4-Chloro-2-(trifluoromethyl)benzyl]-1H-indazol-5-yl}methylidene)-2,4-dioxo-1,3-thiazolidin-3-yl]ethoxy}acetic acid] registered an EC50 of 98 nM. Under `COCCN1CCO[C@H](CN2C(=O)S/C(=C\c3ccc4c(cnn4Cc4ccc(Cl)cc4C(F)(F)F)c3)C2=O)C1` [Compound 189, (5Z)-5-({1-[4-Chloro-2-(trifluoromethyl)benzyl]-1H-indazol-5-yl}methylidene)-3-{[(2S)-4-(2-methoxyethyl)morpholin-2-yl]methyl}-1,3-thiazolidine-2,4-dione] stands 160 nM; under `O=C1S/C(=C\c2ccc3c(cnn3Cc3ccc(Cl)cc3C(F)(F)F)c2)C(=O)N1C[C@H](O)CNCCF` [Compound 295, (5Z)-5-({1-[4-Chloro-2-(trifluoromethyl)benzyl]-1H-indazol-5-yl}methylidene)-3-{(2R)-3-[(2-fluoroethyl)amino]-2-hydroxypropyl}-1,3-thiazolidine-2,4-dione], 66 nM; under `COc1ccc(Cn2ncc3cc(/C=C4\SC(=O)N(CCN5CCC(O)CC5)C4=O)ccc32)c(C(F)(F)F)c1` [Compound 15, (5Z)-3-[2-(4-Hydroxypiperidin-1-yl)ethyl]-5-({1-[4-methoxy-2-(trifluoromethyl)benzyl]-1H-indazol-5-yl}methylidene)-1,3-thiazolidine-2,4-dione], 62 nM.

For `O=C(O)CN1C(=O)S/C(=C\c2ccc3c(cnn3[C@@H]3CCc4cc(Cl)ccc43)c2)C1=O` [Compound 179, [(5Z)-5-({1-[(1R)-5-Chloro-2,3-dihydro-1H-inden-1-yl]-1H-indazol-5-yl}methylidene)-2,4-dioxo-1,3-thiazolidin-3-yl]acetic acid], the EC50 turned out to be 3450 nM.

Regarding `O=C1S/C(=C\c2ccc3c(cnn3Cc3ccc(F)cc3C(F)(F)F)c2)C(=O)N1[C@@H]1CNCC[C@H]1O` (relative stereo) [Compound 281, (5Z)-5-({1-[4-Fluoro-2-(trifluoromethyl)-benzyl]-1H-indazol-5-yl}methylidene)-3-[trans-4-hydroxypiperidin-3-yl]-1,3-thiazolidine-2,4-dione], the EC50 worked out at 170 nM.

`O=C1S/C(=C\c2ccc3c(cnn3Cc3ccc(Cl)cc3C(F)(F)F)c2)C(=O)N1C[C@@H](O)CN1CCCC1` [Compound 292, (5Z)-5-({1-[4-Chloro-2-(trifluoromethyl)benzyl]-1H-indazol-5-yl}methylidene)-3-[(2S)-2-hydroxy-3-pyrrolidin-1-ylpropyl]-1,3-thiazolidine-2,4-dione]: the half-maximal effective concentration (EC50) stood at 49 nM. Compared with the last molecule, the EC50 is about 3.5-fold lower. `O=C1S/C(=C\c2ccc3c(cnn3Cc3ccc(Cl)cc3C(F)(F)F)c2)C(=O)N1Cc1c[nH]nn1` [Compound 85, (5Z)-5-({1-[4-Chloro-2-(trifluoromethyl)benzyl]-1H-indazol-5-yl}methylidene)-3-(1H-1,2,3-triazol-4-ylmethyl)-1,3-thiazolidine-2,4-dione] came in with an EC50 of 136 nM.
